Reference: article PMC6522524 (Nature Communications, 2019)
Where “and” joins values, the source holds several entries; their conditions need not be identical. Equal values may be shown once. Entries after “also recorded” stand apart in the source; their conditions may differ. Read-outs that look alike come from different tables or passages of the source.

Tests used:
[1] = tested on: HBV (genotype D) in Huh-7-NTCP cells; test: In vitro HBV infection model, Huh-7-NTCP cells: secreted HBV DNA
Experimental: (§1) To isolate the secreted HBV DNA, culture media were collected and centrifuged at 15,000 × g to remove debris. The medium was diluted 1:1 with phosphate-buffered saline (PBS), and 1 M NaOH solution was added to a final concentration of 0.1 M. The mixture was incubated at 37 °C for 1 h. Protein was denatured by adding 2 M Tris-HCl (pH 7.5) solution to a final concentration of 0.2 M and incubating the mixture at 98 °C for 5 min. The protein precipitate was removed by centrifugation at 15,000 × g, and the supernatant was subjected to PCR with an HBV DNA primer and probe set (Supplementary Table 1). […] To isolate intracellular HBV DNA, the cells were lysed on ice with lysis buffer (50 mM Tris-HCl, pH 7.5, 1 mM EDTA, 1% NP40) for 10 min. After removing cell debris and nuclei by centrifugation at 15,000 × g, the supernatant was treated with micrococcal nuclease (0.25 U per μL, M0247, New England Biolabs) at 37 °C for 1 h. The micrococcal nuclease was then inactivated by adding EGTA to a final concentration of 10 mM. Thereafter intracellular HBV DNA was extracted with a G-spin^TM total kit (17046, Intron). The isolated intracellular HBV DNA was subjected to PCR with an HBV DNA primer and probe set (Supplementary Table 1). cccDNA was isolated by the Hirt extraction method[54]. […]

[2] = tested on: HBV (genotype D) in HepG2-NTCP cells; test: In vitro HBV infection model, HepG2-NTCP cells: secreted HBV DNA
Experimental: as §1

[3] = in vitro; conditions: human, Cell viability(%)
[4] = in vitro; assay type: cell-based, human; conditions: human, Cell viability(%)
Experimental: Supplementary Fig. 11. Effect of FBS serum iron level on Huh-7, HepG2, and HepG2.2.15 cell
a Cells were maintained in medium supplemented with 2% FBS or 10% FBS for 1 day and treated with
After 6 days, cytotoxicity was measured. b Cells were treated with
the ± SD. *p < 0.05 by unpaired two-tailed Student’s t-test.

[5] = tested on: HBV (genotype D) in PXB mice; conditions: mouse, in vivo
[6] = tested on: HBV rcDNA in Huh-7-NTCP cells; test: In vitro HBV infection model, Huh-7-NTCP cells: intracellular HBV rcDNA
Experimental: as §1

[7] = tested on: HBsAg in HepG2 cells transfected with pHBV1.2×; test: Secreted HBsAg ELISA, HepG2 cells transfected with pHBV1.2×; assay type: cell-based, Hepatitis B virus
Experimental: Secreted HBsAg (f, i respectively) was quantified by ELISA.
An HBsAg ELISA kit (KA0286, Abnova) was used to quantify HBsAg protein. Briefly, culture media were incubated in individual wells of the capture plates for 2 h. After washing, horseradish peroxidase-labeled rabbit anti-HBV surface antibody was added, followed by incubation for an additional 2 h. The substrate solution was added for 15–60 min and absorbance at 450 nm was measured.

[8] = target: HBV core protein (pCDNA3-Core, Y118 wild-type) in Huh-7 cells (Hepatitis B virus genotype C, UniProt P0C6H6); test: cell-based; assay type: cell-based
HBV core protein (pCDNA3-Core, Y118 wild-type) in Huh-7 cells, sequence (P0C6H6 whole entry): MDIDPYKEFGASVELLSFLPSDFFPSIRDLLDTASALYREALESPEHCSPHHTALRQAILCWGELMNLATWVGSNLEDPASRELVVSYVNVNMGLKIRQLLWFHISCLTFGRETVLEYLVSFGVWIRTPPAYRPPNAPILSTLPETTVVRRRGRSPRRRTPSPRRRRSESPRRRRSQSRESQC

[9] = tested on: HBV pgRNA/precore RNA in HepG2.2.15 cells; assay type: cell-based, Hepatitis B virus
Experimental: Fig. 1 Effect of FDA-approved compounds on HBV replication. a Schematic depiction of the primary screening analysis. HepG2.2.15 cells, which were stably transfected with HBV replicons, were treated with 978 FDA-approved drugs (1 μM) for 3 days. Entecavir (ETV) (1 μM) served as positive control. […] Quantitative RT-PCR was performed after 6 days of incubation. d Effect of the 19 candidates on intracellular HBV capsid assembly. Huh-7 cells were transfected with pCDNA3-Core and exposed after 12 h to the 19 candidates (1 μM) for 36 h. The cells were lysed and assembled HBV core particles were isolated by sucrose step gradient ultracentrifugation, resolved on 1% agarose gels, and subjected to immunoblot analysis with anti-HBV core antibody.
Quantitative RT-PCR with primers that detect three HBV regions (R1, R2, and R3, Supplementary Table 1) was used to measure HBV transcription. This RT-PCR detects pgRNA and precore RNA (3.5 kB), two HBV surface-encoding RNAs (2.5 kB and 2.1 kB), and HBx-encoding RNA (0.7 kB)[55]. PCR conditions were 95 °C for 10 min initially, then 50 cycles of 95 °C for 30 s, 60 °C for 60 s and 72 °C for 30 s, and finally 1 cycle of 95 °C for 60 s, 55 °C for 30 s and 95 °C for 30 s.
a Schematic depiction of the R1, R2, and R3 regions of the HBV genome that were targeted by
quantitative RT-PCR to quantitate the transcription of pgRNA, two HBV surface RNAs, and HBx RNA.
pGL3/HBV pgRNA promoter or pGL3/HBV sRNA promoter. The data shown in (b – d) represent two

[10] = ref https://www.drugbank.ca/; cited from earlier work
[11] = tested on: intracellular HBV DNA in HepG2.2.15 and HBV 1.2X adr transfected HepG2 cells; test: Southern blot analysis of intracellular HBV DNA; assay type: cell-based, Hepatitis B virus; conditions: Fig. 4c
Source text: HBV DNA was separated on a 1% agarose gel, blotted onto a nylon membrane (Hybond N + , RPN203B, GE Healthcare), and hybridized with a biotin-labeled full length HBV fragment prepared with the BioPrime™ DNA labeling system (18094011, ThermoFisher).

[12] = in vitro; conditions: human, Cell viability(%); remark: listed apart in the source
[13] = target: HBV core protein Y118F mutant in Huh-7 cells (Hepatitis B virus genotype C, UniProt P0C6H6, Y118F); test: Intracellular HBV capsid assembly, Huh-7 cells transfected with pCDNA3-Core Y118F; assay type: cell-based
HBV core protein Y118F mutant in Huh-7 cells, sequence (P0C6H6 whole entry Y118F, looked up): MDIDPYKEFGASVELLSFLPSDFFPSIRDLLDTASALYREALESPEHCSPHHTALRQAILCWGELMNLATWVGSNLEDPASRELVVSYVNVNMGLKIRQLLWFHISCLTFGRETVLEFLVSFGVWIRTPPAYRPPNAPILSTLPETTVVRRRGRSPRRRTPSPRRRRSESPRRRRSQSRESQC

[14] = tested on: patients; conditions: cited from earlier work
[15] = Huh-7, read-out: Relative intensity (Folds), intracellular capsid, AVERAGE
[16] = Huh-7, read-out: Relative intensity (Folds), intracellular capsid, individual samples

## Cc1cc(C2CCCCC2)n(O)c(=O)c1 [Ciclopirox, 6-cyclohexyl-1-hydroxy-4-methyl-2(1 H)-pyridone]
[1]
  secretion of HBV DNA: dropped markedly
[2]
  secretion of HBV DNA: dropped markedly
[3]; AVERAGE
  viability at 0.1 µM: 98.8%
  viability at 0.2 µM: 102%
  viability at 0.5 µM: 97.7%
  viability at 1 µM: 98.7%
  viability at 2 µM: 99.1%
[3]; individual samples
  viability at 0.1 µM: 98.8%
  viability at 0.2 µM: 102%
  viability at 0.5 µM: 97.6%
  viability at 1 µM: 98.6%
  viability at 2 µM: 99%
[4]; AVERAGE
  viability at 0.1 µM: 99.9%
  viability at 0.2 µM: 99.8%
  viability at 0.5 µM: 99.7%
  viability at 1 µM: 99.7%
  viability at 2 µM: 98%
  viability at 5 µM: 96.5%
  viability at 10 µM: 94.6%
[4]; individual samples
  viability at 0.1 µM: 98.5%
  viability at 0.2 µM: 98.3%
  viability at 0.5 µM: 98.2%
  viability at 1 µM: 96.6%
  viability at 2 µM: 95.4%
  viability at 5 µM: 91.5%
[5]
  Serum HBV DNA, AVERAGE: 6.24 log copies/mL
  Serum HBV DNA, individual samples: 6.248 log copies/mL and 5.238 log copies/mL and 7.238 log copies/mL
  cccDNA, AVERAGE: 0.2214 log copies/cell
  cccDNA, individual samples: 0.22 log copies/cell and 0.29 log copies/cell and 0.16 log copies/cell
[5]; po
  HBV core protein levels in the liver: significantly reduced HBV core protein levels in the liver
  HBeAg levels: significantly decreased HBeAg levels
  Serum ALT levels: decreased
  intrahepatic cccDNA: significantly reduced the amount of intrahepatic cccDNA
  serum HBV DNA levels: lowered serum HBV DNA levels significantly
  serum HBV DNA levels, combined with TDF: these effects were enhanced when it was combined with TDF
[6]
  intracellular relaxed circular DNA levels: dropped markedly
[7]
  HBsAg production: no effect
[8]
  intracellular HBV capsid assembly: inhibited HBV capsid assembly; also recorded: affected intracellular HBV capsid assembly
[8]; [15]
  activity at 0.1 µM: 92.1%
  activity at 0.5 µM: 95.1%
  activity at 1 µM: 82.9%
  activity at 5 µM: 20.4%
  activity at 10 µM: 2.39%
[8]; [16]
  activity at 0.1 µM: 90%
  activity at 0.5 µM: 92.6%
  activity at 5 µM: 17.9%
  activity at 10 µM: 2.39%
[9]
  HBV transcripts levels: no effect
[10]
  pKa value (acidic): 6.84
[11]
  intracellular HBV DNA levels (Southern blot): reduced intracellular HBV DNA levels in a dose-dependent manner
[12]; AVERAGE
  viability at 0.1 µM: 99.9%
  viability at 0.2 µM: 99.2%
  viability at 0.5 µM: 99.4%
  viability at 1 µM: 99.9%
  viability at 2 µM: 99.4%
  viability at 5 µM: 99.2%
  viability at 10 µM: 99.8%
[12]; individual samples
  viability at 0.1 µM: 98.9%
  viability at 0.2 µM: 95.7%
  viability at 0.5 µM: 98.9%
  viability at 1 µM: 99.9%
  viability at 2 µM: 99.6%
  viability at 5 µM: 97.6%
  viability at 10 µM: 99.9%
[13]
  reduction in sensitivity of Y118F compared with the wild-type: approximately 4 fold
[14]; 80 mg per m^2 four times daily, oral
  Dose-limiting gastrointestinal toxicities: Dose-limiting gastrointestinal toxicities were observed
[14]; once daily >10 mg per m^2, oral
  anti-apoptotic gene expression in peripheral blood cells: suppressed anti-apoptotic gene expression in peripheral blood cells
